# Results reported in patent US20070287752A1, “Ophthalmic Compositions Comprising A Branched, Glycerol Compound” (priority 2006, published 2007).
# Assays:
# [1] = tested on: Gram-positive bacteria such as Micrococcus luteus, Corynebacterium aquaticum, Corynebacteriumflavescens, Corynebacterium callunae, and Corynebacterium nephredi; details: cited from earlier work
# [2] = tested on: Pseudomonas aeruginosa, Staphylococcus aureus, Serratia marcescens, Candida albicans and Fusarium solani; details: biocidal data from Examples 1, 2 and 3
# Method: (§1) The ophthalmic compositions are evaluated in accordance with specific procedures outlined by the US Food & Drug Administration and the International Organization for Standardization for the testing of microbiocidal efficacy.
# [3] = tested on: Serratia marcescens (ATCC 13880); assay: Preservative/disinfectant system efficacy testing (log reduction); type: cell-based
# Method: as §1
smiles,measurement,setting,value
"CCCCC(CC)COCC(O)CO (stereo not shown) [EHOPD, 3-[(2-ethylhexyl)oxy]-1,2-propanediol]","antimicrobial activity (known, in words)",[1],exhibit antimicrobial activity against a variety of Gram-positive bacteria
same,biocidal activity (in words),[2],significant activity against all of the microorganisms in the study
same,log reduction S. marcescens,"[3]; 1 hr, Table 5A multi-purpose lens care solution, 10% organic soil, disinfectant concentrations as in label",2.3
same,log reduction S. marcescens,"[3]; 1 hr, phosphate buffered saline, 10% organic soil, concentrations as in label (Table 4)",3.0
same,log reduction S. marcescens,"[3]; 4 hr, Table 5A multi-purpose lens care solution, 10% organic soil, disinfectant concentrations as in label",3.3
same,log reduction S. marcescens,"[3]; 4 hr, phosphate buffered saline, 10% organic soil, concentrations as in label (Table 4)",3.9
same,log reduction S. marcescens,"[3]; EHOPD 0.0001 wt %, 1 hr, borate buffered saline, 10% organic soil",1.7
same,log reduction S. marcescens,"[3]; EHOPD 0.0001 wt %, 1 hr, phosphate buffered saline, 10% Organic Soil",1.7
same,log reduction S. marcescens,"[3]; EHOPD 0.0001 wt %, 4 hr, borate buffered saline, 10% organic soil",1.7
same,log reduction S. marcescens,"[3]; EHOPD 0.0001 wt %, 4 hr, phosphate buffered saline, 10% Organic Soil",1.7
same,log reduction S. marcescens,"[3]; EHOPD 0.001 wt %, 1 hr, borate buffered saline, 10% organic soil",1.7
same,log reduction S. marcescens,"[3]; EHOPD 0.001 wt %, 1 hr, phosphate buffered saline, 10% Organic Soil",1.7
same,log reduction S. marcescens,"[3]; EHOPD 0.001 wt %, 4 hr, borate buffered saline, 10% organic soil",1.7
same,log reduction S. marcescens,"[3]; EHOPD 0.001 wt %, 4 hr, phosphate buffered saline, 10% Organic Soil",3.2
same,log reduction S. marcescens,"[3]; EHOPD 0.01 wt %, 1 hr, Table 3A multi-purpose lens care formulation, 10% organic soil",2.0
same,log reduction S. marcescens,"[3]; EHOPD 0.01 wt %, 1 hr, borate buffered saline, 10% organic soil",1.7
same,log reduction S. marcescens,"[3]; EHOPD 0.01 wt %, 1 hr, phosphate buffered saline, 10% Organic Soil",>5.2
same,log reduction S. marcescens,"[3]; EHOPD 0.01 wt %, 4 hr, Table 3A multi-purpose lens care formulation, 10% organic soil",2.0
same,log reduction S. marcescens,"[3]; EHOPD 0.01 wt %, 4 hr, borate buffered saline, 10% organic soil",1.7
same,log reduction S. marcescens,"[3]; EHOPD 0.01 wt %, 4 hr, phosphate buffered saline, 10% Organic Soil",>5.2
same,log reduction S. marcescens,"[3]; EHOPD 0.1 wt %, 1 hr, Table 3A multi-purpose lens care formulation, 10% organic soil",2.0
same,log reduction S. marcescens,"[3]; EHOPD 0.1 wt %, 1 hr, borate buffered saline, 10% organic soil",4.8
same,log reduction S. marcescens,"[3]; EHOPD 0.1 wt %, 1 hr, phosphate buffered saline, 10% Organic Soil",>5.2
same,log reduction S. marcescens,"[3]; EHOPD 0.1 wt %, 4 hr, Table 3A multi-purpose lens care formulation, 10% organic soil",2.0
same,log reduction S. marcescens,"[3]; EHOPD 0.1 wt %, 4 hr, borate buffered saline, 10% organic soil",>5.2
same,log reduction S. marcescens,"[3]; EHOPD 0.1 wt %, 4 hr, phosphate buffered saline, 10% Organic Soil",>5.2
same,log reduction S. marcescens,"[3]; EHOPD 0.15 wt %, 1 hr, Table 3A multi-purpose lens care formulation, 10% organic soil",2.0
same,log reduction S. marcescens,"[3]; EHOPD 0.15 wt %, 4 hr, Table 3A multi-purpose lens care formulation, 10% organic soil",4.7
same,log reduction S. marcescens,"[3]; EHOPD 0.25 wt %, 1 hr, Table 3A multi-purpose lens care formulation, 10% organic soil",>5.4
same,log reduction S. marcescens,"[3]; EHOPD 0.25 wt %, 4 hr, Table 3A multi-purpose lens care formulation, 10% organic soil",>5.4
same,log reduction S. marcescens,"[3]; EHOPD 0.50 wt %, 1 hr, Table 3A multi-purpose lens care formulation, 10% organic soil",>5.4
same,log reduction S. marcescens,"[3]; EHOPD 0.5 wt %, 1 hr, borate buffered saline, 10% organic soil",4.9
same,log reduction S. marcescens,"[3]; EHOPD 0.5 wt %, 1 hr, phosphate buffered saline, 10% Organic Soil",>5.2
same,log reduction S. marcescens,"[3]; EHOPD 0.50 wt %, 4 hr, Table 3A multi-purpose lens care formulation, 10% organic soil",>5.4
same,log reduction S. marcescens,"[3]; EHOPD 0.5 wt %, 4 hr, borate buffered saline, 10% organic soil",>5.2
same,log reduction S. marcescens,"[3]; EHOPD 0.5 wt %, 4 hr, phosphate buffered saline, 10% Organic Soil",>5.2
same,log reduction S. marcescens,"[3]; EHOPD 0.75 wt %, 1 hr, Table 3A multi-purpose lens care formulation, 10% organic soil",>5.4
same,log reduction S. marcescens,"[3]; EHOPD 0.75 wt %, 4 hr, Table 3A multi-purpose lens care formulation, 10% organic soil",>5.4
same,log reduction S. marcescens,"[3]; EHOPD 1.0 wt %, 1 hr, Table 3A multi-purpose lens care formulation, 10% organic soil",>5.4
same,log reduction S. marcescens,"[3]; EHOPD 1.0 wt %, 4 hr, Table 3A multi-purpose lens care formulation, 10% organic soil",>5.4
